Results on 11 molecules are retold here after ChEMBL document CHEMBL1201862, “PubChem BioAssay data set” (2004).

Some test systems named below: COLO 205; T47D; SK-MEL-28; SF-295; HOP-92; SF-539; CAKI-1; HCT-15; SNB-19; OVCAR-3; HT-29; NCI/ADR-RES; UO-31; MOLT-4; HOP-62; MDA-MB-435; HL-60; RPMI-8226; SNB-75.
Common to all, as to experiment: growth of human tumour cells (NCI), 48 h

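Following 48 hours of exposure in 96-well plates, responses at five concentrations were used to interpolate endpoints linearly. Here, GI50 denotes the concentration required for 50% inhibition of growth.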 Active and inactive are the calls of the source. No stated cut-off is given here; in the data, active = GI50 up to about 1.1 µM and inactive = higher.

For `O=C1CCCCC(=O)Nc2ccccc2N1`, the GI50 in the test with COLO 205, in the test with T47D, in the test on SK-MEL-28, in the test with SF-295, in the test on HOP-92 and in the test with SF-539 was > 100 µM (inactive) each time. The GI50 was > 100 µM (inactive) in the test on CAKI-1; > 100 µM in the test on HCT-15; > 100 µM (inactive) in the test on SNB-19; > 100 µM (inactive) in the test with OVCAR-3; > 100 µM (inactive) with HT-29; > 100 µM (inactive) with NCI/ADR-RES. Further, the GI50 in the test on UO-31, in the test on MOLT-4, in the test with HOP-62, in the test on MDA-MB-435, in the test on HL-60 and with RPMI-8226 was > 100 µM (inactive) each time.
For `CC(C)(C)OC(=O)NCCC(N)=S`, the GI50 in the test with COLO 205, in the test with T47D, in the test with SK-MEL-28, in the test with SF-295, with HOP-92 and in the test on SF-539 was > 100 µM (inactive) each time. The GI50 was > 100 µM in the test with HCT-15; > 100 µM (inactive) with SNB-19; > 100 µM (inactive) with OVCAR-3; > 100 µM (inactive) with HT-29; > 100 µM (inactive) in the test with NCI/ADR-RES; > 100 µM (inactive) in the test on UO-31. Besides, the GI50 in the test on MOLT-4, in the test with HOP-62, in the test with SNB-75, in the test with MDA-MB-435, with HL-60 and in the test on RPMI-8226 was > 100 µM (inactive) each time.
Turning to `CC1OC(OC2C(O[C@@H]3C[C@@H]4CC[C@@H]5[C@H](CC[C@]6(C)[C@@H]7[C@H](C[C@@H]56)O[C@]5(CC[C@@H](C)CO5)[C@H]7C)[C@@]4(C)C[C@H]3O)OC(CO)C(OC3OC(CO)C(O)C(O)C3O)C2O)C(O)C(O)C1O` (stereo partly drawn), the GI50 is 1.74 µM (inactive) with COLO 205; 3.66 µM (inactive) in the test with T47D; 1.75 µM (inactive) with SK-MEL-28; 1.56 µM (inactive) in the test on SF-295; 2.51 µM (inactive) in the test on HOP-92; 1.77 µM (inactive) with SF-539. Further, the GI50 is 1.78 µM (inactive) with CAKI-1; 2.17 µM with HCT-15; 1.79 µM (inactive) in the test with SNB-19; 1.65 µM (inactive) with OVCAR-3; 1.53 µM (inactive) with HT-29; 1.67 µM (inactive) in the test on NCI/ADR-RES. Moreover, the GI50 in the test on UO-31 was 2.12 µM (inactive); in the test on MOLT-4 it was 1.96 µM (inactive); in the test on HOP-62, 1.83 µM (inactive); with SNB-75, 2.25 µM (inactive); in the test with MDA-MB-435 it was 1.78 µM (inactive); with HL-60, 1.91 µM (inactive). Besides, the GI50 in the test with RPMI-8226 is 3.17 µM (inactive).
Take `O=P(O)(O)CN1CCNCCN(CP(=O)(O)O)CCN(CP(=O)(O)O)CCNCC1`: the GI50 was 44200 µM (inactive) with COLO 205; 48300 µM (inactive) in the test with T47D; > 100 µM (inactive) in the test on SK-MEL-28; > 100 µM (inactive) in the test with SF-295; > 100 µM (inactive) in the test with HOP-92; > 100 µM (inactive) with SF-539. Moreover, the GI50 in the test on CAKI-1 is 22500 µM (inactive); in the test on HCT-15, > 100 µM; with SNB-19, > 100 µM (inactive); in the test with OVCAR-3 it was > 100 µM (inactive); with HT-29, 31.3 µM (inactive); in the test with NCI/ADR-RES, > 100 µM (inactive). In addition, the GI50 was > 100 µM (inactive) in the test on UO-31; > 100 µM (inactive) in the test with MOLT-4; > 100 µM (inactive) with HOP-62; 24.4 µM (inactive) with SNB-75; > 100 µM (inactive) in the test with MDA-MB-435; 1.73 µM (inactive) in the test with HL-60. Further, in the test on RPMI-8226, the GI50 is > 100 µM (inactive).
With `COc1ccc(C2N(c3ccc(F)cc3)C(=O)N3C(c4ccc(OC)cc4)N(c4ccc(F)cc4)C(=O)N23)cc1` (stereo not drawn), the GI50 in the test with COLO 205, in the test on T47D, in the test on SK-MEL-28, with SF-295, with HOP-92 and in the test with SF-539 was > 100 µM (inactive) in each case. The GI50 is > 100 µM (inactive) in the test on CAKI-1; > 100 µM with HCT-15; > 100 µM (inactive) in the test on SNB-19; > 100 µM (inactive) in the test on OVCAR-3; > 100 µM (inactive) in the test with HT-29; > 100 µM (inactive) in the test with NCI/ADR-RES. The GI50 with UO-31, in the test on HOP-62, in the test with SNB-75, with MDA-MB-435, in the test with HL-60 and with RPMI-8226 was > 100 µM (inactive) each time.
With `CCC1CC(=O)N(SCC(N)C(=O)O)C1=O` (stereo not drawn), the GI50 in the test on COLO 205, in the test on T47D, in the test with SK-MEL-28, in the test with SF-295, with HOP-92 and with SF-539 was > 100 µM (inactive) in each case. Besides, the GI50 was > 100 µM (inactive) with CAKI-1; > 100 µM in the test on HCT-15; > 100 µM (inactive) with SNB-19; > 100 µM (inactive) in the test with OVCAR-3; > 100 µM (inactive) in the test with HT-29; > 100 µM (inactive) in the test with NCI/ADR-RES. For the same molecule, the GI50 in the test on UO-31, in the test with HOP-62, in the test with SNB-75, in the test with MDA-MB-435, in the test with HL-60 and with RPMI-8226 was > 100 µM (inactive) throughout.
`O=[N+]([O-])c1cccc(-c2cn3c(n2)Cc2ccccc2C3)c1`: the GI50 with COLO 205 is 45.5 µM (inactive); in the test with T47D, 17.1 µM (inactive); with SK-MEL-28, > 100 µM (inactive); in the test with SF-295, 78.5 µM (inactive); with HOP-92, > 100 µM (inactive); in the test on SF-539 it was 57.4 µM (inactive). Moreover, the GI50 with CAKI-1 was 15.6 µM (inactive); in the test on HCT-15, > 100 µM; in the test on SNB-19, > 100 µM (inactive); in the test on HT-29 it was 12.3 µM (inactive); in the test on NCI/ADR-RES, > 100 µM (inactive); in the test on UO-31, 51.2 µM (inactive). Also, the GI50 in the test with MOLT-4 was 9.68 µM (inactive); in the test on HOP-62, 29.1 µM (inactive); in the test on SNB-75, > 100 µM (inactive); in the test with MDA-MB-435 it was 83.4 µM (inactive); in the test with HL-60, > 100 µM (inactive).
`Cc1cc(C)c(N[S+]([O-])c2cccc(C(F)(F)F)c2)c(C)c1` (stereo not drawn): the GI50 with COLO 205, in the test on T47D, in the test with SK-MEL-28, with SF-295, with HOP-92 and with SF-539 was > 100 µM (inactive) in each case. For the same molecule, the GI50 in the test with HCT-15 is > 100 µM; in the test with SNB-19, > 100 µM (inactive); with OVCAR-3, > 100 µM (inactive); in the test on HT-29, > 100 µM (inactive); in the test with NCI/ADR-RES it was > 100 µM (inactive); with UO-31, > 100 µM (inactive). For the same molecule, the GI50 with MOLT-4, in the test with HOP-62, with MDA-MB-435, in the test with HL-60 and in the test on RPMI-8226 was > 100 µM (inactive) throughout.
In the case of `CS(=O)(=O)CCC(N)P(=O)(O)O` (stereo not drawn), the GI50 in the test with COLO 205, in the test with T47D, in the test with SK-MEL-28, in the test with SF-295, with HOP-92 and in the test with CAKI-1 was > 100 µM (inactive) in each case. The GI50 in the test with HCT-15 is > 100 µM; in the test on SNB-19, > 100 µM (inactive); with OVCAR-3, > 100 µM (inactive); with HT-29, > 100 µM (inactive); in the test on NCI/ADR-RES, > 100 µM (inactive); in the test with UO-31 it was > 100 µM (inactive). Also, the GI50 with MOLT-4, with HOP-62, in the test with SNB-75, in the test on MDA-MB-435, in the test with HL-60 and in the test with RPMI-8226 was > 100 µM (inactive) each time.
Turning to `Cc1ccc(/N=N/c2c(O)c(C(=O)O)cc3ccccc23)c(S(=O)(=O)O)c1`, the GI50 in the test on COLO 205 is > 100 µM (inactive); with T47D it was > 100 µM (inactive); in the test with SK-MEL-28 it was > 100 µM (inactive); with SF-295, > 100 µM (inactive); with HOP-92 it was 97.1 µM (inactive); in the test with CAKI-1, > 100 µM (inactive). The GI50 in the test with HCT-15 was > 100 µM; with SNB-19, > 100 µM (inactive); in the test with OVCAR-3 it was > 100 µM (inactive); in the test on HT-29, > 100 µM (inactive); in the test with NCI/ADR-RES it was > 100 µM (inactive); with UO-31, > 100 µM (inactive). The GI50 with MOLT-4, in the test with HOP-62, with SNB-75, with MDA-MB-435 and in the test with RPMI-8226 was > 100 µM (inactive) throughout.
As to `O=C1NN=C(c2c[nH]c3ccccc23)CC1NCc1ccccc1` (stereo not drawn), the GI50 in the test with COLO 205, in the test with T47D, in the test on SK-MEL-28, in the test with SF-295, with HOP-92 and in the test with SF-539 was > 100 µM (inactive) each time. Besides, the GI50 in the test with CAKI-1 is > 100 µM (inactive); with HCT-15 it was > 100 µM; in the test with SNB-19, > 100 µM (inactive); in the test on OVCAR-3, > 100 µM (inactive); in the test with HT-29, > 100 µM (inactive); in the test with NCI/ADR-RES it was > 100 µM (inactive). The GI50 in the test on UO-31, in the test with MOLT-4, in the test with HOP-62, in the test with SNB-75, in the test on MDA-MB-435 and in the test on HL-60 was > 100 µM (inactive) throughout. In addition, the GI50 in the test on RPMI-8226 is > 100 µM (inactive).
